Measured values reported in patent US10435361B2, “Kinase inhibitors” (Topivert Pharma Limited, priority 2013, dated 2019).
Where two headings read alike, the source gives them in different places.

Assays:
PBMCs [1] = experiment: Cell mitosis assay in PBMCs; type: cell-based; conditions: Homo sapiens, PBMC, 5 μg/mL
Method in brief: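 Human PBMCs from healthy donors, density-gradient isolated, stimulated with 2% PHA 48 h, then exposed 20 h to test compounds; demecolcine 0.1 μg/mL added 2 h before harvest. Fixed/permeabilised cells stained for phospho-histone H3 and propidium iodide; mitotic lymphocytes counted by flow cytometry.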

PBMCs [2] = experiment: LPS-induced TNFα/IL-8 release in PBMC cells; type: cell-based; conditions: Homo sapiens, assay (b), read-out: IC50 Values for Inhibition of Cytokine Release PBMCs IL-8
Method in brief: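 Healthy-donor PBMCs isolated by density gradient were pretreated with compound for 2 h, then stimulated with 1 ng/mL LPS (E. coli 0111:B4) for 24 h at 37° C., 5% CO2. IL-8 and TNFα in supernatants measured by sandwich ELISA.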

HT29 cells = experiment: IL-1β-induced IL-8 release in HT29 cells; type: cell-based; conditions: Homo sapiens, HT-29, assay (d), read-out: IC50 Values for Inhibition of Cytokine Release HT29 cells IL-8
Protocol: HT29 cells, a human colon adenocarcinoma cell line, are plated in a 96 well plate (24 hr) and pre-treated with compounds at the desired concentration for 2 hours before addition of 5 ng/mL of IL-1β (Abcam) for 24 hours. Supernatants are harvested for IL-8 quantification by Sandwich ELISA (Duo-set, R&D System). The IC50 is determined from the dose response curve.

d-U937 cells = experiment: LPS-induced TNFα/IL-8 release in d-U937 cells; type: cell-based; conditions: Homo sapiens, dU937, assay (aa)
Protocol: U937 cells, a human monocytic cell line, are differentiated to macrophage-type cells by incubation with phorbol myristate acetate (PMA; 100 ng/mL) for 48 to 72 hr. Cells are pre-incubated with final concentrations of test compound for 2 hr and are then stimulated with 0.1 μg/mL of LPS (from E. Coli: 0111:B4, Sigma) for 4 hr. The supernatant is collected for determination of TNFα and IL-8 concentrations by sandwich ELISA (Duo-set, R&D systems). […] The relative 50% effective concentration (REC50) is determined from the resultant concentration-response curve. The inhibition of IL-8 production is calculated at each concentration of test compound by comparison with vehicle control.

PBMCs [3] = experiment: IL-2 and IFN gamma release in CD3/CD28 stimulated PBMC cells; type: cell-based; conditions: Homo sapiens, assay (c)
Method in brief: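 Healthy-donor PBMCs, density-gradient isolated, stimulated on plates pre-coated with anti-CD3 (0.3 μg/mL) and anti-CD28 (3 μg/mL) antibodies, with compound, for 3 days under standard culture conditions. IC50 derived from the dose-response curve.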

[4] = Hydrolytic stability study (DMSO/water 3:1, 60° C.); type: physicochemical
Protocol: Chemical stability of compounds of the invention was assessed in a mixture of DMSO and water (3:1) at a test compound concentration of 1 mg/mL
Agilent, Waters X-Select C18, 2.5 μm, 4.6×30 mm column, 4 min method, 5-95%
MeCN/water (0.1% formic acid).
Column Oven Temperature 40° C.
Sample Preparation • A 1.0 mg sample of test compound was dissolved in 750 μL of DMSO. Water (250 μL) was added slowly, ensuring no precipitation occurred.
Recording Stability • A 50 μL aliquot of the test solution was removed and analysed in duplicate by 5 μL HPLC injections. The peak area for the test compound was recorded following manual integration of the corresponding UV trace. • The test solution was heated to 60° C., with stirring, and 50 μL aliquots removed for HPLC analysis at 5 and 24 h timepoints.

[5] = method: relative to 10 μg/mL BIRB796 (REC50), read-out: IC50 Values for Inhibition of Cytokine Release dU937 cells TNFα
[6] = read-out: IC50 Values for Inhibition of Cytokine Release dU937 cells IL-8
[7] = read-out: IC50 Values for Inhibition of Cytokine Release PBMCs IFNγ
[8] = read-out: IC50 Values for Inhibition of Cytokine Release PBMCs IL-2

Compound	inhibition at 5 µg/mL (PBMCs [1]) [%]	IC50 (PBMCs [2]) [nM]	IC50 (HT29 cells) [nM]	IC50 (d-U937 cells; [5]) [nM]	IC50 (d-U937 cells; [6]) [nM]	IC50 (PBMCs [3]; [7]) [nM]	IC50 (PBMCs [3]; [8]) [nM]	decomposition in hydrolytic stability study ([4]; 1 mg/mL in DMSO:water (3:1), 60° C., 5 and 24 h)	% Parent Remaining ([4]; DMSO/water 3:1, 0 min) [%]	% Parent Remaining ([4]; DMSO/water 3:1, 60° C., 300 min) [%]	% Parent Remaining ([4]; DMSO/water 3:1, 60° C., 1440 min) [%]
COCCOCCOCCOc1cc(Nc2cc(Oc3ccc(NC(=O)Nc4cc(C(C)(C)C)cc(NS(C)(=O)=O)c4OC)c4ccccc34)ccn2)cc(OC)c1 [Example 11, N-(5-(tert-Butyl)-2-methoxy-3-(3-(4-((2-((3-methoxy-5-(2-(2-(2-methoxyethoxy)ethoxy)-ethoxy)phenyl)amino)pyridin-4-yl)oxy)naphthalen-1-yl)ureido)phenyl)-methanesulfonamide]	33.5	2.6	9.3	1.2	1.4	17.7	73.6	–	–	–	–
COCCOCCOCCOCCOCCOCCOCCOc1cc(Nc2nccc(Oc3ccc(NC(=O)Nc4cc(C(C)(C)C)cc(NS(C)(=O)=O)c4OC)c4ccccc34)n2)cc(OC)c1 [Example 14, N-(3-(3-(4-((2-((3-(2,5,8,11,14,17,20-Heptaoxadocosan-22-yloxy)-5-methoxyphenyl)amino)-pyrimidin-4-yl)oxy)naphthalen-1-yl)ureido)-5-(tert-butyl)-2-methoxyphenyl)-methanesulfonamide]	49.8	1.7	3	0.5	0.6	19.7	182	–	–	–	–
C#Cc1cc(Nc2nccc(Oc3ccc(NC(=O)Nc4cc(C(C)C)nn4-c4ccc(C)cc4)c4ccccc34)n2)cc(C(=O)NCCN2CCOCC2)c1 [Reference Compound B, 3-ethynyl-5-((4-((4-(3-(3-isopropyl-1-(p-tolyl)-1H-pyrazol-5-yl)ureido)naphthalen-1-yl)oxy)pyrimidin-2-yl)amino)-N-(2-morpholinoethyl)benzamide, reference compound]	–	–	–	–	–	–	–	underwent substantial decomposition	100	82	36
C#Cc1cc(Nc2nccc(Oc3ccc(NC(=O)Nc4cc(C(C)(C)C)cc(NS(C)(=O)=O)c4OC)c4ccccc34)n2)cc(C(=O)N[C@@H](C)CN2CCOCC2)c1 [Example 57, (S)-3-((4-((4-(3-(5-(tert-butyl)-2-methoxy-3-(methylsulfonamido)phenyl)ureido)-naphthalen-1-yl)oxy)pyrimidin-2-yl)amino)-5-ethynyl-N-(1-morpholinopropan-2-yl)benzamide]	42.1	3.6	21.2	–	–	74.5	140	–	–	–	–
COc1cc(Nc2nccc(Oc3ccc(NC(=O)Nc4cc(C(C)(C)C)cc(NS(C)(=O)=O)c4OC)c4ccccc34)n2)cc(S(=O)(=O)C2CC2)c1 [Example 5, N-(5-(tert-Butyl)-3-(3-(4-((2-((3-(cyclopropylsulfonyl)-5-methoxyphenyl)amino)pyrimidin-4-yl)oxy)naphthalen-1-yl)ureido)-2-methoxyphenyl)methanesulfonamide]	44.9	2.4	6.8	0.5	1.4	10.3	151	–	–	–	–
C#Cc1cc(Nc2cc(Oc3ccc(NC(=O)Nc4cc(C(C)(C)C)cc(NS(C)(=O)=O)c4OC)c4ccccc34)ccn2)cc(C(=O)NCCOCCOC)c1 [Example 52, 3-((4-((4-(3-(5-(tert-Butyl)-2-methoxy-3-(methylsulfonamido)phenyl)ureido)naphthalen-1-yl)oxy)pyridin-2-yl)amino)-5-ethynyl-N-(2-(2-methoxyethoxy)ethyl)benzamide]	31	2.4	17.3	–	–	39	205	–	–	–	–
C#Cc1cc(Nc2cc(Oc3ccc(NC(=O)Nc4cc(C(C)(C)C)cc(C(N)=O)c4OC)c4ccccc34)ccn2)cc(C(=O)NCCOCCOCCOC)c1 [Example 53, 3-((4-((4-(3-(5-(tert-Butyl)-3-carbamoyl-2-methoxyphenyl)ureido)naphthalen-1-yl)oxy)pyridin-2-yl)amino)-5-ethynyl-N-(2-(2-(2-methoxyethoxy)ethoxy)ethyl)benzamide]	30.3	1.6	6.4	–	–	14.9	181	–	–	–	–
C#Cc1cc(Nc2cc(Oc3ccc(NC(=O)Nc4cc(C(C)(C)C)cc(C(N)=O)c4OC)c4ccccc34)ccn2)cc(C(=O)NCCN2CCOCC2)c1 [Example 48, 3-((4-((4-(3-(5-(tert-Butyl)-3-carbamoyl-2-methoxyphenyl)ureido)naphthalen-1-yl)oxy)pyridin-2-yl)amino)-5-ethynyl-N-(2-morpholinoethyl)benzamide]	44.2	3.4	10.2	–	–	17.2	144	–	–	–	–
C#Cc1cc(Nc2nccc(Oc3ccc(NC(=O)Nc4cc(C(C)(C)C)cc(NS(C)(=O)=O)c4OC)c4ccccc34)n2)cc(C(=O)N[C@H](C)CN2CCOCC2)c1 [Example 56, (R)-3-((4-((4-(3-(5-(tert-Butyl)-2-methoxy-3-(methylsulfonamido)phenyl)ureido)-naphthalen-1-yl)oxy)pyrimidin-2-yl)amino)-5-ethynyl-N-(1-morpholinopropan-2-yl)-benzamide]	46.4	1.8	8.6	–	–	12.2	35.2	–	–	–	–
COCCOCCOCCOc1cc(Nc2nccc(Oc3ccc(NC(=O)Nc4cc(C(C)(C)C)cc(NS(C)(=O)=O)c4OC)c(Cl)c3Cl)n2)cc(OC)c1 [Example 10, N-(5-(tert-Butyl)-3-(3-(2,3-dichloro-4-((2-((3-methoxy-5-(2-(2-(2-methoxyethoxy)ethoxy)-ethoxy)phenyl)amino)pyrimidin-4-yl)oxy)phenyl)ureido)-2-methoxyphenyl)-methanesulfonamide]	70.2	2.3	4.6	0.3	0.8	4.4	9	–	–	–	–
COCCOCCOCCOc1cc(Nc2nccc(Oc3ccc(NC(=O)Nc4cc(C(C)(C)C)cc(NS(C)(=O)=O)c4OC)c4ccccc34)n2)cc(OC(F)F)c1 [Example 17, N-(5-(tert-Butyl)-3-(3-(4-((2-((3-(difluoromethoxy)-5-(2-(2-(2-methoxyethoxy)ethoxy)-ethoxy)phenyl)amino)pyrimidin-4-yl)oxy)naphthalen-1-yl)ureido)-2-methoxyphenyl)-methanesulfonamide]	37	1.8	5.1	–	1.4	8.2	65.6	–	–	–	–
COCCOCCOCCOc1cc(Nc2nccc(Oc3ccc(NC(=O)Nc4cc(C(C)(C)C)cc(NS(C)(=O)=O)c4OC)c4ccccc34)n2)cc(OC)c1Cl [Example 58, N-(5-(tert-Butyl)-3-(3-(4-((2-((4-chloro-3-methoxy-5-(2-(2-(2-methoxyethoxy)ethoxy)ethoxy)-phenyl)amino)pyrimidin-4-yl)oxy)naphthalen-1-yl)ureido)-2-methoxyphenyl)-methanesulfonamide]	41.7	2.6	10.6	–	–	17.1	137	–	–	–	–
COCCOCCOCCOc1cc(Nc2nccc(Oc3ccc(NC(=O)Nc4cc(C(C)(C)C)cc(C(=O)NC5COC5)c4OC)c4ccccc34)n2)cc(OC)c1 [Example 51, 5-(tert-Butyl)-2-methoxy-3-(3-(4-((2-((3-methoxy-5-(2-(2-(2-methoxyethoxy)ethoxy)-ethoxy)phenyl)amino)pyrimidin-4-yl)oxy)naphthalen-1-yl)ureido)-N-(oxetan-3-yl)-benzamide]	44.3	1.6	1.7	–	–	1.8	46.3	–	–	–	–
